Here are results for 26 compounds from patent US20220144823A1, “PYRAZOLOPYRIDINE DERIVATIVES AS INHIBITORS OF PASK” (Galapagos NV, priority 2019, published 2022).

One assay deals with T1, human PASK (Homo sapiens, UniProt Q96RG2).
T1 construct: purchased ThermoFisher Scientific PR7013A
Kind of assay: ADP-Glo kinase assay. The class given is biochemical. To be noted: ADPGlo PASK kinase assay, 25 μM ATP, ZIPtide 25 μM. On the procedure:
The ADP-Glo™ kinase assay is a luminescent technology assay which measures the ADP formed from a kinase reaction. In this specific study, the kinase reactions consisted of the phosphorylation of the ZIPtide peptide substrate by human recombinant PASK. In a second step the kinase reaction is terminated and all the remaining ATP is depleted. In a final step the ADP is converted into ATP and this newly synthesized ATP is measured by using a luciferase/luciferin reaction. The generated light is measured using an Envision plate reader, wherein the luminescent signal obtained positively correlates with the kinase activity.
The test compounds are prepared as a serial dilution of 10 point dose responses with 1/5 dilution steps in 100% DMSO starting from 2 mM highest concentration, diluted 1/20 in water and 1 μL is transferred to the assay plates (PerkinElmer Inc., Cat #6007290).
1% DMSO and 10 μM staurosporine final concentrations are used respectively as negative and positive controls.
2 μL enzyme-substrate mixture is added to the assay plates.
The reaction is started by adding 2 μL diluted ATP on the assay plates immediately after addition of the enzyme-substrate mixture to the compound. Plates are centrifuged for a few seconds at 1000 rpm and gently shaken for 2 min followed by an incubation at RT for 120 min.
The reactions are stopped and the unconsumed ATP is depleted by adding 5 μL ADP-Glo Reagent (Promega, Cat #V912B) to the reaction. The plates are centrifuged for a few seconds at 1000 rpm and incubated at RT for 40 min (ATP depletion).
The ADP is converted to ATP and luciferase and luciferin is introduced to detect ATP by adding 10 μL Kinase Detection Reagent (Promega, Cat #V913B+V914B) to the reaction. The plates are centrifuged for a few seconds at 1000 rpm and incubated at RT for 30 min (ADP detection).
Luminescence is measured on an Envision plate reader (PerkinElmer Inc.).
Raw data are generated following the read-out performed on the Envision plate reader, used to calculate percentage inhibition (PIN) values and plotted to generate dose response curves and derive the average half maximal inhibitory concentrations (IC50) reported in Table VIII.
(In general: In ADP-Glo the light output rises with the ADP produced.)

Assay [1] relates to diabetic non human primates (NHPs) under a high-calorie diet (HCD). Kind of assay: Diabetic monkey model.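 Note: male obese diabetic cynomolgus monkeys fed a high-fat, high-fructose diet, randomized into 4 groups, dosed with test compound for 8 weeks, then a 4-week washout.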
Method: The aim of this assay is to determine the effect of a test compound on lipid metabolism and glucose handling in diabetic non human primates (NHPs) under a high-calorie diet (HCD) consisting of high-fat and high-fructose.
Male obese diabetic cynomolgus monkeys were selected based on their body weights, glucose, insulin levels, and blood lipid parameters. The inclusion criteria were the following: age ≤22 years; fasted plasma glucose between 120 and 300 mg/dL; triglycerides >125 mg/dL, and insulin >75 mIU/mL.
The animals are maintained at 20-23° C. and 40-70% humidity on a 12 h light/dark cycle (7 AM-7 PM). Water is provided ad libitum and the animals are fed twice daily with the high-calorie diet (HCD) enriched with seasonal fruits or vegetables.
After the baseline period, animals were randomized into 4 groups according to body weight, as well as their blood glucose and lipid parameters.
The following parameters were measured once per week during the 8 weeks of treatment and also during the 4 weeks of washout: • body weight • food consumption • blood chemistry (fasted blood glucose, plasma triglycerides, plasma total cholesterol, low density lipoproteins (LDL), and high density lipoproteins (HDL))
Oral glucose tolerance was measured in fasted animals before treatment initiation (baseline), at the end of the treatment period (week 8), and after 4 weeks of washout (week 12).
[2] abbreviates: week 1, treatment, metformin 25 mg/kg b.i.d., Cpd 18 30 mg/kg q.d., p.o.
[3] abbreviates: week 2, treatment, metformin 25 mg/kg b.i.d., Cpd 18 30 mg/kg q.d., p.o.
[4] abbreviates: week 3, treatment, metformin 25 mg/kg b.i.d., Cpd 18 30 mg/kg q.d., p.o.
Where [5] appears, read: week 4, treatment, metformin 25 mg/kg b.i.d., Cpd 18 30 mg/kg q.d., p.o.
Setting [6] is: week 9, washout without treatment.
Setting [7] is: week 10, washout without treatment.
[8] abbreviates: week 11, washout without treatment.
Where [9] appears, read: week 12, washout without treatment.

T1 sequence (Q96RG2 whole entry): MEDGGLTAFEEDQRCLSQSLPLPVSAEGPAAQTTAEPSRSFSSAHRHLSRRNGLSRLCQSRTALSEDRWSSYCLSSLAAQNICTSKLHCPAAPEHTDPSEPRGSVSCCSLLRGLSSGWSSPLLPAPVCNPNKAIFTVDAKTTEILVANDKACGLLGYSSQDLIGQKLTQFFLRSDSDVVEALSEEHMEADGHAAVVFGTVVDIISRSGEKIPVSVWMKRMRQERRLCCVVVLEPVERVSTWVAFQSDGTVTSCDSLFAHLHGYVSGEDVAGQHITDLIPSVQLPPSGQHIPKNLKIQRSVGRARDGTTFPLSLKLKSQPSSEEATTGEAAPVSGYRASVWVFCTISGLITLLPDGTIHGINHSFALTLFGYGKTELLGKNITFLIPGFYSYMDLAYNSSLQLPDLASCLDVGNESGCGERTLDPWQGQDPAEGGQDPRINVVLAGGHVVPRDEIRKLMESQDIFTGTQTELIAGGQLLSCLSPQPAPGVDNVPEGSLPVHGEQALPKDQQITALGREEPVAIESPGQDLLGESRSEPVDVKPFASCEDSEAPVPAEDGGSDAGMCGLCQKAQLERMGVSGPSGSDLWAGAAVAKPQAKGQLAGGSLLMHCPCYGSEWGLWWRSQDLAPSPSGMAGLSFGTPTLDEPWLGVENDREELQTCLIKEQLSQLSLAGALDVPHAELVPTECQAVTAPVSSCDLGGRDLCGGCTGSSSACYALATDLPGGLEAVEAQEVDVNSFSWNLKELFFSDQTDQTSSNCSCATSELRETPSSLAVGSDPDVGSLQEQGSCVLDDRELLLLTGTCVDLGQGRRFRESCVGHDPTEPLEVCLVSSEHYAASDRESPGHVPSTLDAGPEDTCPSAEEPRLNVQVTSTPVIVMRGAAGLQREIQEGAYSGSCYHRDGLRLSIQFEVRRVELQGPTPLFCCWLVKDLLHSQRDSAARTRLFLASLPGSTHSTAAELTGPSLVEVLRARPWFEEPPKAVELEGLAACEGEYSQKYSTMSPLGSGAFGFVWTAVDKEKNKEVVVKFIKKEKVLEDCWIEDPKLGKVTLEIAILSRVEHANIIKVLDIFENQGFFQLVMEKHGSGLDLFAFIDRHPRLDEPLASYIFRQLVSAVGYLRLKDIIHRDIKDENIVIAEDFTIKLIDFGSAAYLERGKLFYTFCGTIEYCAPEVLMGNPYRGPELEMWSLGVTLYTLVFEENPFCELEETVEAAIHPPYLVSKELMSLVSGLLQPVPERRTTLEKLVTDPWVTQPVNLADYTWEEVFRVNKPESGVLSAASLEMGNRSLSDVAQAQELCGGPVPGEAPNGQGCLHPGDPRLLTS

As for `Cc1noc(C)c1-c1cnn2ccc(-n3cc(C(=O)O)cn3)cc12` [Cpd 47, 1-[3-(3,5-dimethylisoxazol-4-yl)pyrazolo[1,5-a]pyridin-5-yl]pyrazole-4-carboxylic acid], on human PASK, the IC50 lay within 10 to 100 nM.

In turn, `Cc1nn(C)c(C)c1-c1cnn2ccc(-n3cc(C(=O)O)cn3)cc12` [Cpd 73, 1-[3-(1,3,5-trimethylpyrazol-4-yl)pyrazolo[1,5-a]pyridin-5-yl]pyrazole-4-carboxylic acid] yielded an IC50 at human PASK of 0.01 to 10 nM.

For the compound `COCCOc1nc(-c2ccn3ncc(-c4c(C)noc4C)c3c2)sc1C(=O)O` [Cpd 59, 2-[3-(3,5-dimethylisoxazol-4-yl)pyrazolo[1,5-a]pyridin-5-yl]-4-(2-methoxyethoxy) thiazole-5-carboxylic acid], on human PASK, the IC50 lay in the range of 0.01 to 10 nM.

As for `Cc1nn(C)c(C)c1-c1cnn2ccc(-c3cc(C(=O)OCOC(=O)C(C)(C)C)co3)cc12` [Cpd 13, 2,2-dimethylpropanoyloxymethyl 5-[3-(1,3,5-trimethylpyrazol-4-yl)pyrazolo[1,5-a]pyridin-5-yl]furan-3-carboxylate], the IC50 against human PASK was 100 to 500 nM.

Take `CCOC(=O)c1sc(-c2ccn3ncc(-c4c(C)nn(C)c4C)c3c2)nc1OCC` [Cpd 88, ethyl 4-ethoxy-2-[3-(1,3,5-trimethylpyrazol-4-yl)pyrazolo[1,5-a]pyridin-5-yl]thiazole-5-carboxylate]: the IC50 on human PASK lay in the range of 100 to 500 nM.

For the compound `Cc1nn(C(F)F)c(C)c1-c1cnn2ccc(-c3ccc(C(=O)O)o3)cc12` [Cpd 51, 5-[3-[1-(difluoromethyl)-3,5-dimethyl-pyrazol-4-yl]pyrazolo[1,5-a]pyridin-5-yl]furan-2-carboxylic acid], the IC50 against human PASK is 0.01 to 10 nM.

With `Cc1nn(C(C)C)c(C)c1-c1cnn2ccc(-n3cc(C(=O)O)c(C(F)(F)F)n3)cc12` [Cpd 80, 1-[3-(1-isopropyl-3,5-dimethyl-pyrazol-4-yl)pyrazolo[1,5-a]pyridin-5-yl]-3-(trifluoromethyl)pyrazole-4-carboxylic acid], the 50% inhibitory concentration (IC50) against human PASK is 10 to 100 nM.

Regarding `Cc1nn(C(C)C)c(C)c1-c1cnn2ccc(-n3cc(C(=O)O)cn3)cc12` [Cpd 52, 1-[3-(1-isopropyl-3,5-dimethyl-pyrazol-4-yl)pyrazolo[1,5-a]pyridin-5-yl]pyrazole-4-carboxylic acid], the IC50 against human PASK lay in the range of 0.01 to 10 nM.

For `Cc1noc(C)c1-c1cnn2ccc(-c3nc(OC(F)F)c(C(=O)O)s3)cc12` [Cpd 61, 4-(difluoromethoxy)-2-[3-(3,5-dimethylisoxazol-4-yl)pyrazolo[1,5-a]pyridin-5-yl]thiazole-5-carboxylic acid], at human PASK, the IC50 was in the range of 0.01 to 10 nM.

For the compound `Cc1nn(C(C)C)c(C)c1-c1cnn2ccc(-c3ccc(C(=O)O)o3)cc12` [Cpd 48, 5-[3-(1-isopropyl-3,5-dimethyl-pyrazol-4-yl)pyrazolo[1,5-a]pyridin-5-yl]furan-2-carboxylic acid], on human PASK, the IC50 was 0.01 to 10 nM.

For the compound `Cc1nn(C(F)F)c(C)c1-c1cnn2ccc(-c3ncc(C(=O)O)o3)cc12` [Cpd 49, 2-[3-[1-(difluoromethyl)-3,5-dimethyl-pyrazol-4-yl]pyrazolo[1,5-a]pyridin-5-yl]oxazole-5-carboxylic acid], the IC50 against human PASK was 0.01 to 10 nM.

Compound `Cc1nn(CC(F)(F)F)c(C)c1-c1cnn2ccc(-c3cc(C(=O)O)c(C4CCOCC4)o3)cc12` [Cpd 55, 5-[3-[3,5-dimethyl-1-(2,2,2-trifluoroethyl)pyrazol-4-yl]pyrazolo[1,5-a]pyridin-5-yl]-2-tetrahydropyran-4-yl-furan-3-carboxylic acid] returned an IC50 against human PASK of 0.01 to 10 nM.

Compound `CCOCCOc1nc(-c2ccn3ncc(-c4c(C)noc4C)c3c2)sc1C(=O)O` [Cpd 60, 2-[3-(3,5-dimethylisoxazol-4-yl)pyrazolo[1,5-a]pyridin-5-yl]-4-(2-ethoxyethoxy) thiazole-5-carboxylic acid] gave an IC50 against human PASK of 0.01 to 10 nM.

Regarding `CN(C)C(=N)N=C(N)N` [metformin, reference compound], the “Bodyweight change (% change from baseline)” value in assay [1] (setting [2]) was 1.0%; in assay [1] (setting [3]), −0.7%; in assay [1] (setting [4]) it was −1.3%; in assay [1] (setting [5]), −5.2%; in assay [1] (setting [6]) it was −6.5%; in assay [1] (setting [7]) it was −7.3%. Also, the “Bodyweight change (% change from baseline)” value in assay [1] (setting [8]) was −6.3%; in assay [1] (setting [9]), −6.1%. Moreover, the “HbA1c change (% change from baseline)” value in assay [1] (setting [2]) was −2.8%; in assay [1] (setting [3]), −12.3%; in assay [1] (setting [4]) it was −17.2%; in assay [1] (setting [5]), −18.9%; in assay [1] (setting [6]) it was −24.1%; in assay [1] (setting [7]), −23.5%. Further, the “HbA1c change (% change from baseline)” value in assay [1] (setting [8]) is given as −30.1%; in assay [1] (setting [9]) it was −28.6%.

As to `CCn1nc(C)c(-c2cnn3ccc(-n4cc(C(=O)O)c(OC)n4)cc23)c1C` [Cpd 75, 1-[3-(1-ethyl-3,5-dimethyl-pyrazol-4-yl)pyrazolo[1,5-a]pyridin-5-yl]-3-methoxy-pyrazole-4-carboxylic acid], at human PASK, the IC50 was 0.01 to 10 nM.

`Cc1noc(C)c1-c1cnn2ccc(-c3nc(OC4COC4)c(C(=O)O)s3)cc12` [Cpd 58, 2-[3-(3,5-dimethylisoxazol-4-yl)pyrazolo[1,5-a]pyridin-5-yl]-4-(oxetan-3-yloxy) thiazole-5-carboxylic acid]: on human PASK, the IC50 was 0.01 to 10 nM.

`Cc1nn(CC(F)(F)F)c(C)c1-c1cnn2ccc(-c3cc(C(=O)O)c(C4=CCOCC4)o3)cc12` [Cpd 53, 2-(3,6-dihydro-2H-pyran-4-yl)-5-[3-[3,5-dimethyl-1-(2,2,2-trifluoroethyl)pyrazol-4-yl]pyrazolo[1,5-a]pyridin-5-yl]furan-3-carboxylic acid]: at human PASK, the IC50 was 0.01 to 10 nM.

As to `CCOC(=O)c1sc(-c2ccn3ncc(-c4c(C)nn(C)c4C)c3c2)nc1OC` [Cpd 87, ethyl 4-methoxy-2-[3-(1,3,5-trimethylpyrazol-4-yl)pyrazolo[1,5-a]pyridin-5-yl]thiazole-5-carboxylate], the IC50 against human PASK was in the range of 100 to 500 nM.

`Cc1nn(C(F)F)c(C)c1-c1cnn2ccc(-c3cc(C(=O)O)c(C4=CCOCC4)o3)cc12` [Cpd 54, 5-[3-[1-(difluoromethyl)-3,5-dimethyl-pyrazol-4-yl]pyrazolo[1,5-a]pyridin-5-yl]-2-(3,6-dihydro-2H-pyran-4-yl)furan-3-carboxylic acid] had an IC50 against human PASK of 0.01 to 10 nM.

On to `Cc1c(-c2cnn3ccc(-c4cc(C(=O)O)co4)cc23)cnn1C` [Cpd 12, 5-[3-(1,5-dimethylpyrazol-4-yl)pyrazolo[1,5-a]pyridin-5-yl]furan-3-carboxylic acid], for which the IC50 on human PASK lay within 0.01 to 10 nM.

As to `COc1nn(-c2ccn3ncc(-c4c(C)nn(C(F)F)c4C)c3c2)cc1C(N)=O` [Cpd 83, 1-[3-[1-(difluoromethyl)-3,5-dimethyl-pyrazol-4-yl]pyrazolo[1,5-a]pyridin-5-yl]-3-methoxy-pyrazole-4-carboxamide], the IC50 against human PASK lay within 0.01 to 10 nM.

Turning to `Cc1c(-c2cnn3ccc(-c4nc(C(=O)O)co4)cc23)c(C(F)(F)F)nn1C` [Cpd 57, 2-[3-[1,5-dimethyl-3-(trifluoromethyl)pyrazol-4-yl]pyrazolo[1,5-a]pyridin-5-yl]oxazole-4-carboxylic acid], the IC50 on human PASK is 0.01 to 10 nM.

In the case of `Cc1nn(CC(F)(F)F)c(C)c1-c1cnn2ccc(-n3cc(C(=O)O)c(C(F)(F)F)n3)cc12` [Cpd 81, 1-[3-[3,5-dimethyl-1-(2,2,2-trifluoroethyl)pyrazol-4-yl]pyrazolo[1,5-a]pyridin-5-yl]-3-(trifluoromethyl)pyrazole-4-carboxylic acid], the IC50 against human PASK lay in the range of 0.01 to 10 nM.

At human PASK, `Cn1cc(-c2cnn3ccc(-c4cc(C(=O)O)co4)cc23)c(C(F)(F)F)n1` [Cpd 10, 5-[3-[1-methyl-3-(trifluoromethyl)pyrazol-4-yl]pyrazolo[1,5-a]pyridin-5-yl]furan-3-carboxylic acid] gave a half-inhibitory concentration (IC50) of 0.01 to 10 nM.

The compound `COc1nn(-c2ccn3ncc(-c4c(C)noc4C)c3c2)cc1C(=O)O` [Cpd 63, 1-[3-(3,5-dimethylisoxazol-4-yl)pyrazolo[1,5-a]pyridin-5-yl]-3-methoxy-pyrazole-4-carboxylic acid] registered an IC50 at human PASK of 10 to 100 nM.

`Cc1noc(C)c1-c1cnn2ccc(-c3nc(OC(C)C)c(C(=O)O)s3)cc12` [Cpd 56, 2-[3-(3,5-dimethylisoxazol-4-yl)pyrazolo[1,5-a]pyridin-5-yl]-4-isopropoxy-thiazole-5-carboxylic acid] came in with an IC50 on human PASK of 0.01 to 10 nM.

Broadly, the IC50 is the concentration that inhibits the measured activity by half.
